In patent US11345703B2, “Substituted pyrazolo[1,5-a]pyrimidine macrocyclic compound” (SHENZHEN TARGETRX, INC., priority 2018, dated 2022) one finds IC50, microsomal CLint and half-life data, which are given here for 9 compounds.

In general, IC50 refers to the concentration at which inhibition is half-maximal. Read a low IC50 as higher potency. The term microsomal CLint denotes the rate of metabolic loss divided by the concentration.

One series concerns KM12 (TPM3-TRKA) cells. As to the kind of experiment: Cytotoxicity test, inhibition of KM12 cell proliferation (CellTiter-Glo). The class given is cell-based. To be noted: Homo sapiens, 72 h, 3 days incubation. How it is done: The inhibitory effect of the example compounds on the activity of KM12 (TPM3-TRKA) cells was examined.
Experimental methods: 1. Preparation of cell plates—KM12 cells were separately seeded in 96-well plates, and 8 ng/ml IL-3 was added to KM12 cells, and the cell plates were incubated in a carbon dioxide incubator overnight. 2. The test compound was dissolved in DMSO and subjected to a 3.16-fold gradient dilution with 9 compound concentrations in triplicate. 3. Compound Treatment of Cells—The compounds were transferred to cell plates at a starting concentration of 10 μM. The cell plates were incubated in a carbon dioxide incubator for 3 days. 4. Detection—The CellTiter-Glo reagent was added to the cell plate and incubated for 30 minutes at room temperature to stabilize the luminescence signal. Readings were performed using a PerkinElmer Envision multi-label analyzer.
On the technique in general: ATP-based viability assays read luminescence as a measure of living cells.

Series [1] can be described thus: Metabolic stability, human liver microsome test. It is filed as in vitro ADME. The following applies: liver microsomes, pH 7.4, 1 μM compound, 0.5 mg/mL protein, 37° C.; for half-life at 1 μM: read-out: human liver microsome test t1/2(min). How it is done: (§1) Microsome tests: human liver microsomes: 0.5 mg/mL, Xenotech; rat liver microsomes: 0.5 mg/mL, Xenotech; coenzyme (NADPH/NADH): 1 mM, Sigma Life Science; magnesium chloride: 5 mM, 100 mM phosphate buffer agent (pH 7.4).
(§2) Preparation of the stock solution: A certain amount of the powder of the example compounds was accurately weighed and dissolved to 5 mM with DMSO.
(§3) Preparation of phosphate buffer (100 mM, pH 7.4): 150 mL of pre-prepared 0.5 M potassium dihydrogen phosphate solution was mixed with 700 mL of pre-prepared 0.5 M dipotassium hydrogen phosphate solution, and the pH of the mixture was adjusted with 0.5 M dipotassium hydrogen phosphate solution to 7.4. It was diluted 5 times with ultrapure water before use, and magnesium chloride was added to obtain a phosphate buffer (100 mM) containing 100 mM potassium phosphate, 3.3 mM magnesium chloride, and a pH of 7.4.
(§4) A solution of NADPH regeneration system (containing 6.5 mM NADP, 16.5 mM G-6-P, 3 U/mL G-6-P D, 3.3 mM magnesium chloride) was prepared and placed on wet ice before use.
(§5) Preparation of stop solution: acetonitrile solution containing 50 ng/mL propranolol hydrochloride and 200 ng/mL tolbutamide (internal standard). 25057.5 μL of phosphate buffer (pH 7.4) was taken into a 50 mL centrifuge tube, 812.5 μL of human liver microsomes was added respectively, and mixed uniformly to obtain a liver microsome dilution with a protein concentration of 0.625 mg/mL. 25057.5 μL of phosphate buffer (pH 7.4) was taken into a 50 mL centrifuge tube, and 812.5 μL of SD rat liver microsomes was added respectively, and mixed uniformly to obtain a liver microsome dilution with a protein concentration of 0.625 mg/mL.
(§6) Incubation of the sample: The stock solutions of the corresponding compounds were diluted to 0.25 mM as working solutions with an aqueous solution containing 70% acetonitrile before use. 398 μL of human liver microsome or rat liver microsome dilutions were added to 96-well incubation plates (N=2), and 2 μL of 0.25 mM working solutions were added and mixed uniformly, respectively.
(§7) Determination of metabolic stability: 300 μL of pre-cooled stop solution was added to each well of a 96-well deep well plate, which was placed on ice as a stop plate. The 96-well incubation plate and the NADPH regeneration system were placed in a 37° C. water bath, shaken at 100 rpm, and pre-incubated for 5 min. 80 μL of the incubation solution was removed from each well of the incubation plate, added to the stop plate, and mixed uniformly, and 20 μL of the NADPH regeneration system solution was supplemented as a sample at 0 min. Then, 80 μL of the NADPH regeneration system solution was added to each well of the incubation plate to start the reaction and the timing was started. […] 100 μL of the reaction solution was removed at 10, 30, and 90 min of the reaction, respectively, and added to the stop plate, and the reaction was terminated by vortexing for 3 min. The stop plate was centrifuged at 5000×g for 10 min at 4° C. 100 μL of the supernatant was removed into a 96-well plate to which 100 μL of distilled water was previously added, mixed uniformly, and sample analysis was performed by LC-MS/MS.
(§8) Data analysis: The peak areas of the corresponding compounds and the internal standard were detected by LC-MS/MS system, and the ratios of the peak areas of the compounds to the internal standard were calculated.
(§9) The metabolic stability in human and rat liver microsomes was evaluated by simultaneously testing and comparing the compounds of the present invention and the compound without deuteration. The non-deuterated compound LOXO-195 was used as a control.
(In general: Microsomes from liver hold many membrane-bound enzymes, among them those of drug oxidation.)

Series [2] is described as follows: Metabolic stability, rat liver microsome test. It is filed as in vitro ADME. To be noted: SD, liver microsomes, pH 7.4, 1 μM compound, 0.5 mg/mL protein, 37° C.; for half-life at 1 μM: read-out: rat liver microsome test t1/2(min). How it is done:
as §1, §2, §3, §4, §5, §6, §7, §8, §9

The structures appear in SMILES notation.

`[2H]C1([2H])CCN2c3ccn4ncc(c4n3)C(=O)N[C@H](C)CCc3ncc(F)cc3[C@]21[2H]` [Compound L-2-a, (6R,15R)-9-fluoro-15-methyl-2,11,16,20,21,24-hexaazapentocyclo[16.5.2.0^2,6,0^7,12,0^21,25]pentacosane-1(24),7,9,11,18(25),19,22-heptaene-17-one-5,5,6-d3] registered an IC50 in the series with KM12 (TPM3-TRKA) cells of 2.51 nM. In series [1], the microsomal CLint at 1 μM was found to be 79.6 µL/min/mg and the half-life at 1 μM is 17.4 min. Moreover, in series [2], the microsomal CLint at 1 μM turned out to be 45.6 µL/min/mg and the half-life at 1 μM was determined as 30.4 min.

`[2H]C1([2H])CCN2c3ccn4ncc(c4n3)C(=O)N[C@H](C)CCc3ncc(F)cc3[C@@]21[2H]` [Compound L-2-b, (6S,15R)-9-fluoro-15-methyl-2,11,16,20,21,24-hexaazapentocyclo[16.5.2.0^2,6,0^7,12,0^21,25]pentacosane-1(24),7,9,11,18(25),19,22-heptaene-17-one-5,5,6-d3]: the microsomal CLint at 1 μM in series [1] was 55.2 µL/min/mg; in series [2], 57.9 µL/min/mg. Further, the half-life at 1 μM stood at 25.1 min in series [1] and 23.9 min in series [2].

As for `[2H]C([2H])([2H])C1([2H])CCc2ncc(F)cc2C2CCCN2c2ccn3ncc(c3n2)C(=O)N1` (racemic) [Compound 70, 9-fluoro-15-(methyl-d3)-2,11,16,20,21,24-hexaazapentocyclo[16.5.2.0^2,6,0^7,12,0^21,25]pentacosane-1(24),7,9,11,18(25),19,22-heptaene-17-one-15-d], in series [1], the microsomal CLint at 1 μM stood at 78.7 µL/min/mg and the half-life at 1 μM stood at 17.6 min. In addition, in series [2], the microsomal CLint at 1 μM was 35.5 µL/min/mg and the half-life at 1 μM is 39.1 min.

In the case of `C[C@@H]1CCc2ncc(F)cc2[C@H]2CCCN2c2ccn3ncc(c3n2)C(=O)N1` [Compound Φ-a, (6R,15R)-9-fluoro-15-methyl-2,11,16,20,21,24-hexaazapentocyclo[16.5.2.0^2,6,0^7,12,0^21,25]pentacosane-1(24),7,9,11,18(25),19,22-heptaene-17-one, reference compound], it took 2.56 nM to reach half-maximal inhibition in the series with KM12 (TPM3-TRKA) cells (IC50). For the same compound, in series [1], the microsomal CLint at 1 μM turned out to be 108 µL/min/mg and the half-life at 1 μM was found to be 12.9 min. For the same compound, in series [2], the microsomal CLint at 1 μM was 83.2 µL/min/mg and the half-life at 1 μM came to 16.7 min.

For `C[C@@H]1CCc2ncc(F)cc2[C@@H]2CCCN2c2ccn3ncc(c3n2)C(=O)N1` [Φ-b, reference compound], the values for the microsomal CLint at 1 μM in series [1] and in series [2] were 78.4 µL/min/mg and 79.2 µL/min/mg, respectively. For the same compound, the half-life at 1 μM is 17.7 min in series [1] and 17.5 min in series [2].

Turning to `[2H]C1([2H])c2ncc(F)cc2[C@@H]2CCCN2c2ccn3ncc(c3n2)C(=O)N[C@H](C)C1([2H])[2H]` [Compound L-1-b, (6S,15R)-9-fluoro-15-methyl-2,11,16,20,21,24-hexaazapentocyclo[16.5.2.0^2,6,0^7,12,0^21,25]pentacosane-1(24),7,9,11,18(25),19,22-heptaene-17-one-13,13,14,14-d4], in series [1], the microsomal CLint at 1 μM worked out at 49.8 µL/min/mg and the half-life at 1 μM is 27.8 min. Moreover, in series [2], the microsomal CLint at 1 μM came out at 75.1 µL/min/mg and the half-life at 1 μM came to 18.5 min.

For the compound `[2H]C1([2H])c2ncc(F)cc2[C@H]2CCCN2c2ccn3ncc(c3n2)C(=O)N[C@H](C)C1([2H])[2H]` [Compound L-1-a, (6R,15R)-9-fluoro-15-methyl-2,11,16,20,21,24-hexaazapentocyclo[16.5.2.0^2,6,0^7,12,0^21,25]pentacosane-1(24),7,9,11,18(25),19,22-heptaene-17-one-13,13,14,14-d4], in series [1], the microsomal CLint at 1 μM was determined as 56.5 µL/min/mg and the half-life at 1 μM was found to be 24.5 min. Moreover, in series [2], the microsomal CLint at 1 μM worked out at 44.2 µL/min/mg and the half-life at 1 μM is 31.3 min.

Take `[2H]C1([2H])c2ncc(F)cc2C2CCCN2c2ccn3ncc(c3n2)C(=O)N[C@H](C)C1([2H])[2H]` (stereo partly drawn) [Compound 13, (15R)-9-fluoro-15-methyl-2,11,16,20,21,24-hexaazapentocyclo[16.5.2.0^2,6,0^7,12,0^21,25]pentacosane-1(24),7,9,11,18(25),19,22-heptaene-17-one-13,13,14,14-d4]: in series [1], the microsomal CLint at 1 μM turned out to be 38.5 µL/min/mg and the half-life at 1 μM was 36 min. Also, in series [2], the microsomal CLint at 1 μM was 23.3 µL/min/mg and the half-life at 1 μM is 59.4 min.

Consider `C[C@@H]1CCc2ncc(F)cc2C2CCCN2c2ccn3ncc(c3n2)C(=O)N1` (some centres unmarked) [Compound Φ, reference compound], for which the microsomal CLint at 1 μM in series [1] is 94.3 µL/min/mg; in series [2], 59.5 µL/min/mg. The figures for the half-life at 1 μM in series [1] and in series [2] were 14.7 min and 23.3 min, respectively.
